Key:
BRD9 [1] = molecular target: T1, BRD9 (Homo sapiens, UniProt Q9H8M2); assay: BRD9 degradation, HiBiT-BRD9 KI HEK293 (LgBiT) cells, NanoGlo Lytic Endpoint assay (Assay Protocol 1); type: cell-based; conditions: BRD9 degradation; for Dmax at 1 µM / Dmax: HEK293; for Dmax at 1 µM: 1 μM compound at 6 h of treatment, read-out: Assay 1 Dmax; for Dmax: read-out: Dmax
T1 sequence (Q9H8M2 1-597): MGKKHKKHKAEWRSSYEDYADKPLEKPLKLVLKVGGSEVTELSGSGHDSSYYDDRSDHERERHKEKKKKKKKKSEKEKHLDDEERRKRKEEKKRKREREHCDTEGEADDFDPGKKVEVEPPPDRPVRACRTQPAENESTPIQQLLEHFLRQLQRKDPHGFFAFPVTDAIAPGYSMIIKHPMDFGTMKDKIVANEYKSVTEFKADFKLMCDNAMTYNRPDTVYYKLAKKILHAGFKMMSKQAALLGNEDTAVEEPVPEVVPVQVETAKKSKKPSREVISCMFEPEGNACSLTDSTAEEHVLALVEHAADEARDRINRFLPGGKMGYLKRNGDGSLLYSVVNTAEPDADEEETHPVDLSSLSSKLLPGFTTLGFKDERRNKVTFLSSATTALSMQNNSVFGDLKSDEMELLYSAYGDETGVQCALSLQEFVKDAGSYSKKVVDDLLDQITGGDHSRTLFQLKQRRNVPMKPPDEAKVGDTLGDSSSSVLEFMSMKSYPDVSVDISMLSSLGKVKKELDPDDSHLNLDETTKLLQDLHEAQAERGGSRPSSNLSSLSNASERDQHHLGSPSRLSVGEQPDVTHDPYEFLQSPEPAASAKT
In short: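 HiBiT-tagged BRD9 knock-in HEK293 (LgBiT) cells exposed to compounds for 6 h at 37 °C, 5% CO2. Residual BRD9 measured by HiBiT lytic luminescence. % BRD9 remaining normalised to DMSO-treated cells (high) and no-cell wells (low).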

BRD9 [2] = molecular target: T1, BRD9; assay: Degradation of BRD9 (IF), immunofluorescence in MV4-11 cells, 24 hours (Assay Protocol 2); type: cell-based; design: A suspension of MV4-11 cells (ATCC CRL-9591) was prepared; host or cells: MV4-11
In short: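 % BRD9 remaining, scaled between DMSO (high) and 100 nM CFT-8634 (low) control wells, derives from mean Alexa 647 contrast in central nuclei by high-content imaging. MV4-11 cells had 24 h compound exposure at 37° C. before PFA fixation, Triton permeabilisation and anti-BRD9 E4Q3F immunostaining.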

[3] = Table 2, Assay Protocol 1, 6 h of treatment, read-out: Assay 1 DC50
[4] = MV4-11, 24 h, Table 2, BRD9 degradation (IF), Assay Protocol 2, MV4-11 cells, read-out: Assay 2 DCmax
[5] = Table 2, BRD9 degradation (IF), Assay Protocol 2, MV4-11 cells, read-out: Assay 2 DC50
[6] = Assay protocol 1, read-out: DC50
[7] = Assay protocol 2, BRD9 degradation, read-out: DC50
[8] = MV4-11, Assay protocol 2, BRD9 degradation, read-out: Dmax
[9] = Table 4, determined according to Assay Protocol 1, read-out: DC50^1
[10] = MV4-11, Table 4, BRD9 degradation, determined according to Assay Protocol 2, read-out: Dmax^2
[11] = Table 4, BRD9 degradation, determined according to Assay Protocol 2, read-out: DC50^2

Row | Compound | DC50 (BRD9 [1]; [6]) | Dmax (BRD9 [1]; Assay protocol 1) | DC50 (BRD9 [2]; [7]) | Dmax (BRD9 [2]; [8]) | other results
1 | COc1cc(-c2cn(C)c(=O)c3cnccc23)cc(OC)c1CN(C)CCN(C)Cc1cccc2c1CCN(C(=O)/C(C#N)=C/C(C)(C)C)C2C (mixture of isomers) [Compound A32, (E/Z)-2-(5-(((2-((2,6-dimethoxy-4-(2-methyl-1-oxo-1,2-dihydro-2,7-naphthyridin-4-yl)benzyl)(methyl)amino)ethyl)(methyl)amino)methyl)-1-methyl-1,2,3,4-tetrahydroisoquinoline-2-carbonyl)-4,4-dimethylpent-2-enenitrile] | – | – | – | – | Dmax at 1 µM (BRD9 [1]; Table 2, Assay Protocol 1): 40 to 70%; DC50 (BRD9 [1]; [3]): 10 to 25 nM; Dmax (BRD9 [2]; [4]): 40 to 70%; DC50 (BRD9 [2]; [5]): < 1.25 nM
2 | COc1cc(-c2cn(C)c(=O)c(C)c2C)cc(OC)c1CN1CCN(Cc2cccc3c2CCN(C(=O)/C(C#N)=C/c2cc(C)on2)C3C)CC1 (mixture of isomers) [Compound B4, (E/Z)-2-(5-((4-(2,6-dimethoxy-4-(1,4,5-trimethyl-6-oxo-1,6-dihydropyridin-3-yl)benzyl)piperazin-1-yl)methyl)-1-methyl-1,2,3,4-tetrahydroisoquinoline-2-carbonyl)-3-(5-methylisoxazol-3-yl)acrylonitrile] | 1.25 to 10 nM | 40 to 70% | 1.25 to 10 nM | 40 to 70% | –
3 | COc1cccc(/C=C(\C#N)C(=O)N2CC3CC2CN3Cc2c(OC)cc(-c3cn(C)c(=O)c(C)c3C)cc2OC)n1 (mixture of isomers) [BRD9k, (E/Z)-2-(5-(2,6-dimethoxy-4-(1,4,5-trimethyl-6-oxo-1,6-dihydropyridin-3-yl)benzyl)-2,5-diazabicyclo[2.2.1]heptane-2-carbonyl)-3-(6-methoxypyridin-2-yl)acrylonitrile] | – | – | – | – | DC50 (BRD9 [1]; [9]): < 25 nM; Dmax (BRD9 [2]; [10]): 50 to 70%; DC50 (BRD9 [2]; [11]): < 25 nM
4 | COc1cc(-c2cn(C)c(=O)c3cnccc23)cc(OC)c1CN1CCN(Cc2cccc3c2CCN(C(=O)/C(C#N)=C/c2nccs2)[C@H]3C)CC1 (single isomer, unassigned) [Compound A15] | – | – | – | – | Dmax at 1 µM (BRD9 [1]; Table 2, Assay Protocol 1): 40 to 70%; DC50 (BRD9 [1]; [3]): 1.25 to 10 nM; Dmax (BRD9 [2]; [4]): 40 to 70%; DC50 (BRD9 [2]; [5]): < 1.25 nM
5 | COc1cc(-c2cn(C)c(=O)c(C)c2C)cc(OC)c1CN(C)C(=O)/C(C#N)=C/c1cccc(Br)n1 [BRD9ab, (E/Z)-3-(6-bromopyridin-2-yl)-2-cyano-N-(2,6-dimethoxy-4-(1,4,5-trimethyl-6-oxo-1,6-dihydropyridin-3-yl)benzyl)-N-methylacrylamide] | – | – | – | – | DC50 (BRD9 [1]; [9]): < 25 nM; Dmax (BRD9 [2]; [10]): 50 to 70%; DC50 (BRD9 [2]; [11]): < 25 nM
6 | COc1cc(-c2cn(C)c(=O)c(C)c2C)cc(OC)c1CN1CCN(CC(=O)NCCOc2ccc3c(c2)C(C)N(C(=O)/C(C#N)=C/c2nccs2)CC3)CC1 (mixture of isomers) [Compound B29, (E/Z)—N-(2-((2-(2-cyano-3-(thiazol-2-yl)acryloyl)-1-methyl-1,2,3,4-tetrahydroisoquinolin-7-yl)oxy)ethyl)-2-(4-(2,6-dimethoxy-4-(1,4,5-trimethyl-6-oxo-1,6-dihydropyridin-3-yl)benzyl)piperazin-1-yl)acetamide] | 25 to 1000 nM | 70 to 75% | 10 to 25 nM | > 75% | –
7 | COc1cc(-c2cn(C)c(=O)c(C)c2C)cc(OC)c1CN1C2CC1CN(Cc1cccc3c1CCN(C(=O)/C(C#N)=C/C(C)(C)C)C3C)C2 (mixture of isomers) [Compound B13, (E/Z)-2-(5-((6-(2,6-dimethoxy-4-(1,4,5-trimethyl-6-oxo-1,6-dihydropyridin-3-yl)benzyl)-3,6-diazabicyclo[3.1.1]heptan-3-yl)methyl)-1-methyl-1,2,3,4-tetrahydroisoquinoline-2-carbonyl)-4,4-dimethylpent-2-enenitrile] | 10 to 25 nM | > 75% | 1.25 to 10 nM | 40 to 70% | –
8 | COc1cc(-c2cn(C)c(=O)c(C)c2C)cc(OC)c1CN1CCN(Cc2cccc(C3CCCN3C(=O)/C(C#N)=C/c3cccc(C(F)(F)F)n3)c2)CC1 (stereo not drawn) [Compound B26] | 1.25 to 10 nM | > 75% | < 1.25 nM | > 75% | –
9 | COc1cc(-c2cn(C)c(=O)c(C)c2C)cc(OC)c1CN(C)C(=O)c1ccc2c(c1)CCN(C(=O)/C(C#N)=C/c1cccc(Br)n1)C2C (mixture of isomers) [Compound B17, (E/Z)-2(3-(6-bromopyridin-2-yl)-2-cyanoacryloyl)-N-(2,6-dimethoxy-4-(1,4,5-trimethyl-6-oxo-1,6-dihydropyridin-3-yl)benzyl)-N,1-dimethyl-1,2,3,4-tetrahydroisoquinoline-6-carboxamide] | 25 to 1000 nM | 40 to 70% | 25 to 1000 nM | 40 to 70% | –
10 | COc1cc(-c2cn(C)c(=O)c(C)c2C)cc(OC)c1CN1CCN(Cc2cccc3c2CCN(C(=O)/C(C#N)=C/C2(C(F)(F)F)CCC2)C3C)CC1 (mixture of isomers) [Compound B36, (E/Z)-2-(5-((4-(2,6-dimethoxy-4-(1,4,5-trimethyl-6-oxo-1,6-dihydropyridin-3-yl)benzyl)piperazin-1-yl)methyl)-1-methyl-1,2,3,4-tetrahydroisoquinoline-2-carbonyl)-3-(1-(trifluoromethyl)cyclobutyl)acrylonitrile] | 1.25 to 10 nM | 40 to 70% | 25 to 1000 nM | 40 to 70% | –

Now from value to molecule, other results behind:

Row | DC50 (BRD9 [1]; [6]) | Dmax (BRD9 [1]; Assay protocol 1) | DC50 (BRD9 [2]; [7]) | Dmax (BRD9 [2]; [8]) | Compound | other results
11 | 1.25 to 10 nM | > 75% | < 1.25 nM | > 75% | COc1cc(-c2cn(C)c(=O)c(C)c2C)cc(OC)c1CN(C)Cc1ccc2c(c1)C(C)N(C(=O)/C(C#N)=C/c1cccc(Br)n1)CC2 (mixture of isomers) [Compound B5, (E/Z)-3-(6-bromopyridin-2-yl)-2-(7-(((2,6-dimethoxy-4-(1,4,5-trimethyl-6-oxo-1,6-dihydropyridin-3-yl)benzyl)(methyl)amino)methyl)-1-methyl-1,2,3,4-tetrahydroisoquinoline-2-carbonyl)acrylonitrile] | –
12 | – | 40 to 70% | < 1.25 nM | 40 to 70% | COc1cc(-c2cn(C)c(=O)c(C)c2C)cc(OC)c1CN1CCN(Cc2cccc3c2CCN(C(=O)/C(C#N)=C/C2CC(F)(F)C2)C3C)CC1 (mixture of isomers) [Compound B1, (E/Z)-3-(3,3-difluorocyclobutyl)-2-(5-((4-(2,6-dimethoxy-4-(1,4,5-trimethyl-6-oxo-1,6-dihydropyridin-3-yl)benzyl)piperazin-1-yl)methyl)-1-methyl-1,2,3,4-tetrahydroisoquinoline-2-carbonyl)acrylonitrile] | –
13 | – | 40 to 70% | 1.25 to 10 nM | > 75% | COc1ccc([C@@H]2CN(C(=O)/C(C#N)=C/c3nccs3)C[C@H]2C(=O)N2CCN(Cc3c(OC)cc(-c4cn(C)c(=O)c(C)c4C)cc3OC)CC2)cc1 [Compound B27] | –
14 | – | 40 to 70% | – | 40 to 70% | CCCC(c1ccc(C(=O)N(C)CCC(=O)N2CCN(Cc3c(OC)cc(-c4cn(C)c(=O)c(C)c4C)cc3OC)CC2)cc1)N(C)C(=O)/C(C#N)=C/c1nccs1 (stereo not drawn) [Compound B180] | –
15 | 1.25 to 10 nM | 40 to 70% | – | 40 to 70% | COc1cc(-c2cn(C)c(=O)c(C)c2C)cc(OC)c1CN1CCN(Cc2cccc3c2CCN(C(=O)/C(C#N)=C/c2cc(C)ccn2)C3C)CC1 (mixture of isomers) [Compound B19, (E/Z)-2-(5-((4-(2,6-dimethoxy-4-(1,4,5-trimethyl-6-oxo-1,6-dihydropyridin-3-yl)benzyl)piperazin-1-yl)methyl)-1-methyl-1,2,3,4-tetrahydroisoquinoline-2-carbonyl)-3-(4-methylpyridin-2-yl)acrylonitrile] | –
16 | < 1.25 nM | > 75% | < 1.25 nM | 40 to 70% | COc1cc(-c2cn(C)c(=O)c(C)c2C)cc(OC)c1CN1CCC(Oc2cccc3c2CCN(C(=O)/C(C#N)=C/C(C)(C)C)C3C)CC1 (mixture of isomers) [Compound B44, (E/Z)-2-(5-((1-(2,6-dimethoxy-4-(1,4,5-trimethyl-6-oxo-1,6-dihydropyridin-3-yl)benzyl)piperidin-4-yl)oxy)-1-methyl-1,2,3,4-tetrahydroisoquinoline-2-carbonyl)-4,4-dimethylpent-2-enenitrile] | –
